These compounds were tested against T1, G1 APOL1 (Homo sapiens, UniProt O14791, I384M/S342G) (assay: Acute APOL1 Thallium Assay with inducible stable clones of HEK 293 cells). Settings: HEK 293 T-Rex cells expressing G1 APOL1; read-out: Thallium Assay (IC50).
T1 construct: expressed in transfected cells
T1 sequence (O14791 28-398 S342G/I384M): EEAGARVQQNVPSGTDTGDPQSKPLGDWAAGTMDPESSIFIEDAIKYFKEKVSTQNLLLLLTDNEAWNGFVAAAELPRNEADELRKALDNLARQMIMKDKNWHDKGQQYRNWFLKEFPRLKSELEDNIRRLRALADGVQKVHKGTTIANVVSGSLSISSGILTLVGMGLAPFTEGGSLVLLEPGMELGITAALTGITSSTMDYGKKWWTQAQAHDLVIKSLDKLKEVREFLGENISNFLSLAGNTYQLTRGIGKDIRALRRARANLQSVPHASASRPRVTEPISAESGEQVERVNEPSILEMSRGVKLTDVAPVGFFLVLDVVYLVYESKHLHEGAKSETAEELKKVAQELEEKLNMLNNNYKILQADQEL
Type: cell-based
In short: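 Readout: Tl+-triggered fluorescence, FLIPR, reflecting potassium flux through APOL1 pores after cells take up an AM-ester thallium indicator. Cells: HEK T-Rex stable clone G1 DC3.25, APOL1 G1 induced by tetracycline, seeded 26000 per well.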
`CN(CC1(CO)CC1)C(=O)[C@H]1C[C@H](c2c(-c3ccc(F)cc3)[nH]c3c(F)cc(F)cc32)C1` [Compound 49] was tested, and the IC50 was > 1000 nM. For `C[C@H](NC(=O)[C@H]1C[C@H](c2c(-c3ccc(F)cc3)[nH]c3c(F)cc(F)cc32)C1)C(=O)N(C)C` [Compound 65], the IC50 was 250 to 1000 nM. For `O=C(CNC(=O)[C@H]1C[C@H](c2c(-c3ccc(F)cc3)[nH]c3c(F)cc(F)cc32)C1)NC1CC1` [Compound 50], the IC50 was > 1000 nM. For `O=C(NCC1CCOCC1)[C@H]1C[C@H](c2c(-c3ccc(F)cc3)[nH]c3c(F)cc(F)cc32)C1` [Compound 42], the IC50 was > 1000 nM. `CN(CC(N)=O)C(=O)[C@H]1C[C@H](c2c(-c3ccc(F)cc3)[nH]c3c(F)cc(F)cc32)C1` [Compound 51] showed an IC50 of 250 to 1000 nM. For `CC(NC(=O)[C@H]1C[C@H](c2c(-c3ccc(F)cc3)[nH]c3c(F)cc(F)cc32)C1)c1ccn(C)n1` (mixture of isomers) [Compound 75], the IC50 was 250 to 1000 nM. For `CC(C)N1CCN(C(=O)[C@H]2C[C@H](c3c(-c4ccc(F)cc4)[nH]c4c(F)cc(F)cc43)C2)CC1=O` [Compound 63], the IC50 was > 1000 nM. With `CN(C)C(=O)CN(C)C(=O)[C@H]1C[C@H](c2c(-c3ccc(F)cc3)[nH]c3c(F)cc(F)cc32)C1` [Compound 62] the IC50 was 250 to 1000 nM. For `CCNC(=O)[C@@H]1CCCN1C(=O)[C@H]1C[C@H](c2c(-c3ccc(F)cc3)[nH]c3c(F)cc(F)cc32)C1` [Compound 64], the IC50 was > 1000 nM. For `CC(N)(C(=O)NC(=O)[C@H]1C[C@H](c2c(-c3ccc(F)cc3)[nH]c3c(F)cc(F)cc32)C1)C(F)(F)F` (stereo partly shown) [Compound 60], the IC50 was > 1000 nM. With `O=C(NCC1CC(F)(F)C1)[C@H]1C[C@H](c2c(-c3ccc(F)cc3)[nH]c3c(F)cc(F)cc32)C1` [Compound 41] the IC50 was > 1000 nM. In the case of `O=C(NC1(CO)CC1)[C@H]1C[C@H](c2c(-c3ccc(F)cc3)[nH]c3c(F)cc(F)cc32)C1` [Compound 47], the IC50 is reported as 250 to 1000 nM. For `O=C(NC1(CCO)CC1)[C@H]1C[C@H](c2c(-c3ccc(F)cc3)[nH]c3c(F)cc(F)cc32)C1` [Compound 59], the IC50 was 250 to 1000 nM. For `O=C(NCC1(CO)COC1)[C@H]1C[C@H](c2c(-c3ccc(F)cc3)[nH]c3c(F)cc(F)cc32)C1` [Compound 83], the IC50 was > 1000 nM. For `CC(=O)NC1CCCN(C(=O)[C@H]2C[C@H](c3c(-c4ccc(F)cc4)[nH]c4c(F)cc(F)cc43)C2)C1` (stereo partly shown) [Compound 91], the IC50 was > 1000 nM. In the case of `O=C(NCC1(O)CCCC1)[C@H]1C[C@H](c2c(-c3ccc(F)cc3)[nH]c3c(F)cc(F)cc32)C1` [Compound 69], the IC50 is reported as > 1000 nM. With `O=C([C@H]1C[C@H](c2c(-c3ccc(F)cc3)[nH]c3c(F)cc(F)cc32)C1)N1CCCCC1CCO` (stereo partly shown) [Compound 94] the IC50 was > 1000 nM. For `CC(NC(=O)[C@H]1C[C@H](c2c(-c3ccc(F)cc3)[nH]c3c(F)cc(F)cc32)C1)c1ccn[nH]1` (mixture of isomers) [Compound 81], the IC50 was 250 to 1000 nM. With `COCC1(CNC(=O)[C@H]2C[C@H](c3c(-c4ccc(F)cc4)[nH]c4c(F)cc(F)cc43)C2)CC1` [Compound 53] the IC50 was > 1000 nM. In the case of `CC(C)(O)C1CN(C(=O)[C@H]2C[C@H](c3c(-c4ccc(F)cc4)[nH]c4c(F)cc(F)cc43)C2)C1` [Compound 86], the IC50 is reported as > 1000 nM. In the case of `CN(CCO)C(=O)[C@H]1C[C@H](c2c(-c3ccc(F)cc3)[nH]c3c(F)cc(F)cc32)C1` [Compound 79], the IC50 is reported as < 250 nM. In the case of `COCC1(NC(=O)[C@H]2C[C@H](c3c(-c4ccc(F)cc4)[nH]c4c(F)cc(F)cc43)C2)CC1` [Compound 54], the IC50 is reported as < 250 nM. `CC1(O)CN(C(=O)[C@H]2C[C@H](c3c(-c4ccc(F)cc4)[nH]c4c(F)cc(F)cc43)C2)C1` [Compound 74] was tested, and the IC50 was 250 to 1000 nM. Work on `NCCCNC(=O)[C@H]1C[C@H](c2c(-c3ccc(F)cc3)[nH]c3c(F)cc(F)cc32)C1` [Compound 4] yielded an IC50 of 250 to 1000 nM. With `CN1CCN(C(=O)CNC(=O)[C@H]2C[C@H](c3c(-c4ccc(F)cc4)[nH]c4c(F)cc(F)cc43)C2)CC1` [Compound 67] the IC50 was > 1000 nM. For `NC(=O)CNC(=O)[C@H]1C[C@H](c2c(-c3ccc(F)cc3)[nH]c3c(F)cc(F)cc32)C1` [Compound 1, N-(2-amino-2-oxo-ethyl)-3-[5,7-difluoro-2-(4-fluorophenyl)-1H-indol-3-yl]cyclobutanecarboxamide], the IC50 was < 250 nM. For `NCC(O)CNC(=O)[C@H]1C[C@H](c2c(-c3ccc(F)cc3)[nH]c3c(F)cc(F)cc32)C1` (stereo partly shown) [Compound 3], the IC50 was 250 to 1000 nM. `O=C([C@H]1C[C@H](c2c(-c3ccc(F)cc3)[nH]c3c(F)cc(F)cc32)C1)N(CCO)C1CC1` [Compound 52] gave an IC50 of 250 to 1000 nM. `CC1C[C@H](NC(=O)[C@H]2C[C@H](c3c(-c4ccc(F)cc4)[nH]c4c(F)cc(F)cc43)C2)C(=O)N1` (mixture of isomers) [Compound 84] was tested, and the IC50 was > 1000 nM. With `CN1CC(CNC(=O)[C@H]2C[C@H](c3c(-c4ccc(F)cc4)[nH]c4c(F)cc(F)cc43)C2)CC1=O` (stereo partly shown) [Compound 70] the IC50 was > 1000 nM. In the case of `NC(=O)C1CCCCN1C(=O)[C@H]1C[C@H](c2c(-c3ccc(F)cc3)[nH]c3c(F)cc(F)cc32)C1` (stereo partly shown) [Compound 92], the IC50 is reported as > 1000 nM. For `O=C1NCCC1NC(=O)[C@H]1C[C@H](c2c(-c3ccc(F)cc3)[nH]c3c(F)cc(F)cc32)C1` (stereo partly shown) [Compound 2], the IC50 was < 250 nM. In the case of `Cc1cc(CNC(=O)[C@H]2C[C@H](c3c(-c4ccc(F)cc4)[nH]c4c(F)cc(F)cc43)C2)nn1C` [Compound 73], the IC50 is reported as > 1000 nM. `C[C@@H](NC(=O)[C@H]1C[C@H](c2c(-c3ccc(F)cc3)[nH]c3c(F)cc(F)cc32)C1)C(=O)N(C)C` [Compound 61] was tested, and the IC50 was > 1000 nM. In the case of `CN(CC(C)(C)O)C(=O)[C@H]1C[C@H](c2c(-c3ccc(F)cc3)[nH]c3c(F)cc(F)cc32)C1` [Compound 93], the IC50 is reported as > 1000 nM. `O=C(NC(CO)CF)[C@H]1C[C@H](c2c(-c3ccc(F)cc3)[nH]c3c(F)cc(F)cc32)C1` (stereo partly shown) [Compound 78] was tested, and the IC50 was < 250 nM. `NC(=O)C1(NC(=O)[C@H]2C[C@H](c3c(-c4ccc(F)cc4)[nH]c4c(F)cc(F)cc43)C2)CC1` [Compound 56] gave an IC50 of 250 to 1000 nM. In the case of `CC(C)(NC(=O)[C@H]1C[C@H](c2c(-c3ccc(F)cc3)[nH]c3c(F)cc(F)cc32)C1)C(=O)N1CCOCC1` [Compound 66], the IC50 is reported as > 1000 nM. `CCOCC1(CNC(=O)[C@H]2C[C@H](c3c(-c4ccc(F)cc4)[nH]c4c(F)cc(F)cc43)C2)CC1` [Compound 55] was tested, and the IC50 was > 1000 nM. In the case of `CC(NC(=O)[C@H]1C[C@H](c2c(-c3ccc(F)cc3)[nH]c3c(F)cc(F)cc32)C1)C(N)=O` (mixture of isomers) [Compound 68], the IC50 is reported as 250 to 1000 nM. In the case of `Cn1cnc(CNC(=O)[C@H]2C[C@H](c3c(-c4ccc(F)cc4)[nH]c4c(F)cc(F)cc43)C2)c1` [Compound 48], the IC50 is reported as < 250 nM. In the case of `O=C1CC(NC(=O)[C@H]2C[C@H](c3c(-c4ccc(F)cc4)[nH]c4c(F)cc(F)cc43)C2)CN1` (mixture of isomers) [Compound 44], the IC50 is reported as > 1000 nM. `O=C(OC1CN(C(=O)[C@H]2C[C@H](c3c(-c4ccc(F)cc4)[nH]c4c(F)cc(F)cc43)C2)C1)C1CCOCC1` [Compound 85] gave an IC50 of 250 to 1000 nM. Compound `CN(C(=O)[C@H]1C[C@H](c2c(-c3ccc(F)cc3)[nH]c3c(F)cc(F)cc32)C1)C1(CO)CC1` [Compound 58] has an IC50 of 250 to 1000 nM. In the case of `O=C1NCC[C@H]1NC(=O)[C@H]1C[C@H](c2c(-c3ccc(F)cc3)[nH]c3c(F)cc(F)cc32)C1` [Compound 45], the IC50 is reported as 250 to 1000 nM. With `Cn1ccc(CNC(=O)[C@H]2C[C@H](c3c(-c4ccc(F)cc4)[nH]c4c(F)cc(F)cc43)C2)n1` [Compound 71] the IC50 was 250 to 1000 nM. `O=C(NCCO)[C@H]1C[C@H](c2c(-c3ccc(F)cc3)[nH]c3c(F)cc(F)cc32)C1` [Compound 46, 3-[5,7-difluoro-2-(4-fluorophenyl)-1H-indol-3-yl]-N-(2-hydroxyethyl)cyclobutanecarboxamide] was tested, and the IC50 was < 250 nM. `O=C([C@H]1C[C@H](c2c(-c3ccc(F)cc3)[nH]c3c(F)cc(F)cc32)C1)N1C[C@@H](CO)OCC12CC2` [Compound 57] was tested, and the IC50 was > 1000 nM. With `CC(NC(=O)[C@H]1C[C@H](c2c(-c3ccc(F)cc3)[nH]c3c(F)cc(F)cc32)C1)c1ccnn1C` (mixture of isomers) [Compound 76] the IC50 was > 1000 nM. `NC(=O)[C@@H]1CCCN1C(=O)[C@H]1C[C@H](c2c(-c3ccc(F)cc3)[nH]c3c(F)cc(F)cc32)C1` [Compound 88] was tested, and the IC50 was > 1000 nM. `O=C(NCC1(O)CCCCC1)[C@H]1C[C@H](c2c(-c3ccc(F)cc3)[nH]c3c(F)cc(F)cc32)C1` [Compound 80] was tested, and the IC50 was > 1000 nM. With `COCc1cc(CNC(=O)[C@H]2C[C@H](c3c(-c4ccc(F)cc4)[nH]c4c(F)cc(F)cc43)C2)n[nH]1` [Compound 72] the IC50 was > 1000 nM. For `O=C([C@H]1C[C@H](c2c(-c3ccc(F)cc3)[nH]c3c(F)cc(F)cc32)C1)N1CCC(O)(CO)CC1` [Compound 87], the IC50 was > 1000 nM. For `CC(O)CN(C)C(=O)[C@H]1C[C@H](c2c(-c3ccc(F)cc3)[nH]c3c(F)cc(F)cc32)C1` (stereo partly shown) [Compound 90], the IC50 was > 1000 nM.

Same assay, conditions: Table 24, Compounds 287 to 465; read-out: Thallium Assay (IC50)
`NC(=O)CNCC1CC(c2c(-c3ccc(F)cc3)[nH]c3c(F)cc(F)cc23)C1` (stereo not shown) [Compound 433, 2-(((3-(5,7-difluoro-2-(4-fluorophenyl)-1H-indol-3-yl)cyclobutyl)methyl)amino)acetamide] was tested, and the IC50 was < 250 nM. For `NC(=O)CC1CC(c2c(-c3ccc(F)cc3)[nH]c3c(F)cc(F)cc23)C1` (stereo not shown) [Compound 455], the IC50 was < 250 nM. In the case of `NC(=O)CNC[C@H]1C[C@@H](c2c(-c3ccc(F)cc3)[nH]c3c(F)cc(F)cc32)C1` [Compound 447], the IC50 is reported as < 250 nM.

Same assay, conditions: Thallium Assay (IC50), HEK 293 T-Rex cells expressing G1 APOL1
For `O=C([C@H]1C[C@H](c2c(-c3ccc(F)cc3)[nH]c3c(F)cc(F)cc32)C1)N1CCC(O)(O)CC1` [Compound 127], the IC50 was > 1000 nM.

Source: patent US12116343B2, “Inhibitors of APOL1 and methods of using same” (Vertex Pharmaceuticals Incorporated, priority 2020, dated 2024)
